Reference: patent publication US12606559B2, “JAK inhibitor compounds, methods for synthesizing same and use thereof” (GALDERMA HOLDING SA, priority 2020, dated 2026)
Read-outs that look alike come from different tables or passages of the source.

What was measured:
Recombinant JAK1 = target: T1, Recombinant JAK1 (Homo sapiens, UniProt P23458); experiment: In vitro enzyme assay (Cisbio kinase assay), JAK1; format: biochemical; details: ATP 300 μM; read-out: Enzymatic assay: IC50 JAK1
T1 construct: purchased Life Technologies PV4775
T1 sequence (P23458 whole entry): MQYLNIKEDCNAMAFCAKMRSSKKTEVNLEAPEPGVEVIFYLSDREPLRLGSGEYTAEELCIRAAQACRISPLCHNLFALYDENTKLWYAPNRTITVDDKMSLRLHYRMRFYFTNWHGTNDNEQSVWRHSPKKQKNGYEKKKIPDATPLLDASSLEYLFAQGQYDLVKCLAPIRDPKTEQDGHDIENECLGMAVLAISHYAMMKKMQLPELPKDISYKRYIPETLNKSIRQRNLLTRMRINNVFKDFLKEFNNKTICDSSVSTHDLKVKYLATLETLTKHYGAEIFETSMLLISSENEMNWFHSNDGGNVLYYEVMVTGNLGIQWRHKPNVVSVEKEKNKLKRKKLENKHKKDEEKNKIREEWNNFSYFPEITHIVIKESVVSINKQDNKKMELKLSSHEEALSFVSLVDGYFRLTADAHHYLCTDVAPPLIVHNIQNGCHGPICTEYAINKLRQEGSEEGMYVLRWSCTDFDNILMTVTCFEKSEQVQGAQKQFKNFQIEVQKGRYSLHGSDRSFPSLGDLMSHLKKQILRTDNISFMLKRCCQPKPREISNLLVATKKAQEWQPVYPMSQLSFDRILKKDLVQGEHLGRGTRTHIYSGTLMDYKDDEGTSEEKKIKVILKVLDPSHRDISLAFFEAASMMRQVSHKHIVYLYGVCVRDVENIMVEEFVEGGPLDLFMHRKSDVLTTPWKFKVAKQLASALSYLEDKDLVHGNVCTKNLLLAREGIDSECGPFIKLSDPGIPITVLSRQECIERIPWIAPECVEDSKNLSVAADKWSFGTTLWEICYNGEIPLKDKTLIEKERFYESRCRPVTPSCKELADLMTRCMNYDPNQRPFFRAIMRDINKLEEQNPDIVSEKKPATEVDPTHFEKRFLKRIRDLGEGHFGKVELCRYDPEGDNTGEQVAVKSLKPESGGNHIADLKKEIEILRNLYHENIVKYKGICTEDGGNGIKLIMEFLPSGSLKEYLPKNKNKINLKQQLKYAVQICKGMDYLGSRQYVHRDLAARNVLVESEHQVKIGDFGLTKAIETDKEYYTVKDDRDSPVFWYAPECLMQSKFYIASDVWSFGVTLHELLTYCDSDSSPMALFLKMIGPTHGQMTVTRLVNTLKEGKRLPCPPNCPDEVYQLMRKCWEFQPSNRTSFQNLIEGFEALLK

[1] = test system: IL-6 induced Phospho-STAT3 (Tyr705) in TF-1 cells; experiment: In vitro cellular pSTAT3 assay, IL-6 stimulated TF-1 cells; format: cell-based; details: Homo sapiens
IL6 signalling in hWB = experiment: hWB assay, IL6; format: cell-based, human; details: human whole blood; read-out: hWB assay: IC50 IL6
[2] = test system: IL-6 induced p-STAT3Y705 in skin; experiment: In vivo pharmacodynamy model: IL-6 induced Phospho-STAT3, topical; set-up: species or system BALB/c ByJ Rj mice; details: topical 1 mM, vehicle PG/EtOH 3/7
SF logD = format: physicochemical
[3] = Kinetic aqueous solubility; format: physicochemical
[4] = Protein binding analysis (RED), human plasma; format: in vitro ADME; details: 5 μM, RED 4 h
Method: (§1) The protein binding was assessed in plasma of Human, male balb-c mice, male Wistar Han rat, male Gottingen minipig by rapid equilibrium dialysis (RED) devices. After the plasma and buffer phosphate 50 mM pH7.4 were equilibrated at 37° C., the compound was added to plasma to reach a final concentration of 5 μM. An aliquot of plasma was withdrawn immediately. Equilibration under mild agitation was continued for 4 h. The plasma and buffer were sampled and samples were quenched with 4 volumes of acetonitrile and centrifuged. Supernatant was quantified in HPLC/MS/MS to calculate the recovery and the percentage of compound dissolved in the buffer (unbound) and bound to plasma proteins.

[5] = Protein binding analysis (RED), mouse plasma; format: in vitro ADME, male balb-c mice; details: 5 μM, RED 4 h
Method: as §1

[6] = Intrinsic clearance in human hepatocytes; format: in vitro ADME; details: 2.5 μM
Method: (§2) The intrinsic clearance was assessed in cryopreserved Hepatocytes obtained by Human livers donors of mix gender pooled together, male balb-c mouse, male Wistar Han rats and male Göttingen minipig, by looking at the parent compound disappearance. The incubations were performed using a final concentration of viable cells of 1 million/ml (viability above 70%) and test item of 2.5 μM. Incubations were followed up to 2 h. Aliquotes were withdrawn at different time points and reaction quenched with acetonitrile. After centrifugation the supernatant was analyzed by HPLC/MS to quantify the remaining amount of parent in comparison with time 0. The clearance was calculated by fitting the log of the percentage remaining with Graphpad Prism ver.7.

[7] = Intrinsic clearance in rat hepatocytes; format: in vitro ADME, male Wistar Han rats; details: 2.5 μM
Method: as §2

[8] = Intrinsic clearance in mouse hepatocytes; format: in vitro ADME, male balb-c mouse; details: 2.5 μM
Method: as §2

[9] = Intrinsic clearance in minipig hepatocytes; format: in vitro ADME, male Göttingen minipig; details: 2.5 μM
Method: as §2

[10] = In vivo pharmacokinetic analysis in rat, iv; set-up: species or system male Wistar Han rat; details: iv 1 mg/kg; for clearance / Vd / half-life: male, Wistar Han, rat, whole blood; for clearance: blood, read-out: iv PK rat: Cl; for Vd: read-out: iv PK rat: Vd; for half-life: read-out: iv PK rat: t½ (converted)
Method: (§3) One male Wistar Han rat. Compound was administered intravenously to fed animal at a target dose of 1 mg/kg, dose volume: 2 mL/kg, in DMSO/hydroxypropyl-beta-cyclodextrin 20% in phosphate buffer 60 mM pH 7 (5:95). Blood samples were collected at various time points. Blood samples were then assayed using a method based upon protein precipitation with acetonitrile followed by LC/MS/MS analysis. Non-compartmental methods were used for pharmacokinetic analysis of blood concentration versus time data

[11] = In vivo pharmacokinetic analysis in minipig, iv; set-up: species or system male Göttingen minipigs; details: iv 1 mg/kg; for clearance: male, Göttingen, minipig, whole blood, blood, read-out: iv PK minipig: Cl
Method: as §3, with “Three” for “One”, “Göttingen minipigs.” for “Wistar Han rat.”, “animals” for “animal”, “volume 1” for “volume: 2”, “DMSO: hydroxypropyl-β-cyclodextrin” for “DMSO/hydroxypropyl-beta-cyclodextrin”, “data.” for “data”

CYP2D6 = target: T2, CYP2D6 (Homo sapiens, UniProt P10635); experiment: CYP2D6 inhibition in human liver microsomes; format: in vitro ADME; details: dextromethorphan
T2 construct: assessed in Human pooled liver microsomes of mixed gender; from tissue; host or cells: human pooled liver microsomes
T2 sequence (P10635 whole entry): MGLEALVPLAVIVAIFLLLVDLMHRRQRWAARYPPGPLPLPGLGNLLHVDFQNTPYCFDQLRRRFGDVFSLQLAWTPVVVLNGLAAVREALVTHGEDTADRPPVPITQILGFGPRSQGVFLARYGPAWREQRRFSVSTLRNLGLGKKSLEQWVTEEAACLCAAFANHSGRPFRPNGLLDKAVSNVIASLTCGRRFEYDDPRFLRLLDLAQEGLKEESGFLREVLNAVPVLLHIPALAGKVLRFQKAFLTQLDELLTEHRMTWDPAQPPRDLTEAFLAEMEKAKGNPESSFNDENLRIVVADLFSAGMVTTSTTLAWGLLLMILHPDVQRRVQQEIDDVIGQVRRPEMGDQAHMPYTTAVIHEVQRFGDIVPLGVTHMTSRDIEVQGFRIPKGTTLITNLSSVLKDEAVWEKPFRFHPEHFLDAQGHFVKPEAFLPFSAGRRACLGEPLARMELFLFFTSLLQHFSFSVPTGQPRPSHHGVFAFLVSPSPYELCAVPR
Method: After 5 min at 37° C. incubations were started with NADPH and prolonged for 10 min. The test compound was tested up to 30 μM keeping the final concentration of organic solvent was below 0.5%. The final concentration of microsomes was 0.1 mg/ml to ensure linearity during the time of the incubation. The reaction was quenched by adding 3 volume of acetonitrile. After centrifugation the supernatant was analyzed by HPLC/MS/MS for the formation of des-methyldextromethorphane selectively produced by CYP2D6 and 1′hydroxymidazolam or 6β-hydroxytestosterone, selectively produced by CYP3A. IC50 was calculated with Graphpad Prism v.7 comparing the amount of metabolite produced in presence of the test compound with that produced in absence of test item.

CYP3A4 = target: T3, CYP3A4 (Homo sapiens, UniProt P08684); experiment: CYP3A inhibition in human liver microsomes; format: in vitro ADME
T3 construct: assessed in Human pooled liver microsomes of mixed gender; from tissue; host or cells: human pooled liver microsomes
T3 sequence (P08684 2-503): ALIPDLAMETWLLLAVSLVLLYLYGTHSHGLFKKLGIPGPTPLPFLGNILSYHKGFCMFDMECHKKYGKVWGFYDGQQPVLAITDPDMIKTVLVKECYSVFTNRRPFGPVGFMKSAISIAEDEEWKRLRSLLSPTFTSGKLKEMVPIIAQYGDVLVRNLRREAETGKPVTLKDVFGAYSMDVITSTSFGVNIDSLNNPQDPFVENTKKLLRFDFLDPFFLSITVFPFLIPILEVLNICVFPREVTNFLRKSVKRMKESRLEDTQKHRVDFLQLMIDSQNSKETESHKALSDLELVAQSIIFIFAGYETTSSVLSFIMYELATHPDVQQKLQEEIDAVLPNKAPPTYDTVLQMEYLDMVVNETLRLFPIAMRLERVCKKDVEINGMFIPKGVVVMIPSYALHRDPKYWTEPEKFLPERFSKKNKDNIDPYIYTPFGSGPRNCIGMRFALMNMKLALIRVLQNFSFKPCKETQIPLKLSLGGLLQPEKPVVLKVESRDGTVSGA

panel of 403 kinases = experiment: Kinase selectivity scores S35 / S1 @ 10 μM (403 kinases); format: binding
3T3 murine fibroblasts = experiment: Phototoxicity, neutral red uptake; format: cell-based; details: 3T3 fibroblasts, 7 J/cm2 UVA/UVB
Method: Phototoxicity was evaluated in 3T3 murine fibroblasts. Cells were incubated with different concentrations of test compounds. One plate was then exposed to a dose of 7 J/cm2 (UVA/UVB mimicking usual solar exposure) whereas the other plate was kept in the dark. The treatment medium was then replaced with culture medium and after 24 h cell viability was determined by Neutral red uptake. Concentration leading to 50% decrease of viability was calculated in the absence and in the presence of irradiation. The PIF (photo irritation factor) ratio was then calculated: […]).

[12] = test system: 44 targets (binding and enzyme/uptake assays); experiment: CEREP Safety Screen-44
Method: An in vitro pharmacology assay was conducted to assess the capability of the compounds to interact with different pharmacological targets when tested at 10 μM in different binding and enzyme/uptake assays. The included targets are indicative of potential effects in major organs and drug-drug interactions.
Compound binding was calculated as a % inhibition of the binding of a radioactively labelled ligand specific for each target. […] […].

[13] = TF-1, cellular assay IL6, read-out: Free IC50
[14] = TF-1 cells, IL-6 100 ng/ml, pSTAT3, read-out: Cellular Assay: IC50 IL6
[15] = midazolam, read-out: IC50 CYP3A4 mid.
[16] = testosterone, read-out: IC50 CYP3A4 testo.

SMILES | IC50 (Recombinant JAK1) | IC50 [1, 13] | IC50 [1, 14] | IC50 (IL6 signalling in hWB) | PD/IL6 mouse top @1 mM % inh vs vehicle [2] | logD (SF logD) | Kinetic aq sol [3] | hFU [4] | mFU [5] | Intr. Clear. h heps [6] | Intr. Clear. rheps [7] | Intr. Clear. mheps [8] | Intr. Clear. minipig heps [9] | iv PK rat: Cl (value in brackets, %) [10] | clearance [10] | Vd [10] | half-life [10] | iv PK minipig: Cl (value in brackets, %) [11] | clearance [11] | IC50 (CYP2D6) | also measured
CC1(C)CCN(C(=O)C[C@H]2C[C@@H](Nc3c(C#N)cnc4[nH]ccc34)C2)CC1 [Compound A, 4-(((cis)-3-(2-(4,4-dimethylpiperidin-1-yl)-2-oxoethyl)cyclobutyl)amino)-1H-pyrrolo[2,3-b]pyridine-5-carbonitrile] | 3 nM | 367 nM | 11 nM | 1.3 µM | 66% | 3.7 | 15 µM | 4.4% | 5.2% | 264 microL/min/10 6 cells | > 152 microL/min/10 6 cells | 215 microL/min/10 6 cells | > 300 microL/min/10 6 cells | 46% | 36 mL/min/kg | 1.4 L/kg | 32.4 min | 111% | 31 mL/min/kg | 25 µM | IC50 (CYP3A4; [15]): 3.6 µM; IC50 (CYP3A4; [16]): 1.5 µM; Selectivity @ 10 μM: number of kinases out of 403 (panel of 403 kinases): 24/403; Phototox (3T3 murine fibroblasts): Neg/Neg; Safety panel (Cerep): 44 targets % inh @ 10 microM, Nb of targets > 50% inh ([12]; 10 microM): 1/44
CC1CCN(C(=O)C[C@H]2C[C@@H](Nc3c(C#N)cnc4[nH]ccc34)C2)CC1 [Compound B, 4-(((cis)-3-(2-(4-Methylpiperidin-1-yl)-2-oxoethyl)cyclobutyl)amino)-1H-pyrrolo[2,3-b]pyridine-5-carbonitrile] | 4 nM | 275 nM | 11 nM | 6.9 µM | 81%/ND Tofa @ 10 mM | 3.1 | 35 µM | 5.6% | 5.1% | 147 microL/min/10 6 cells | 134 microL/min/10 6 cells | > 300 microL/min/10 6 cells | 248 microL/min/10 6 cells | 46% | 36 mL/min/kg | 0.8 L/kg | 15.6 min | 97% | 27 mL/min/kg | 25 µM | IC50 (CYP3A4; [15]): 9.4 µM; IC50 (CYP3A4; [16]): 5.6 µM; Selectivity @ 10 μM: number of kinases out of 403 (panel of 403 kinases): 19/403; Phototox (3T3 murine fibroblasts): Neg/Neg; Safety panel (Cerep): 44 targets % inh @ 10 microM, Nb of targets > 50% inh ([12]; 10 μM): 0/44
